Test results from paper PMC3472523 (Journal of the American Chemical Society, 2012).
Residues, ends and D or L forms follow the SMILES beside them.

How the values were obtained:
Bcl-2 = conditions: cited from earlier work
Bcl-xL [1] = molecular target: T1, Bcl-xL (Homo sapiens, UniProt Q07817); conditions: cited from earlier work
Mcl-1 [2] = molecular target: T2, Mcl-1 (Mus musculus, UniProt P97287); conditions: cited from earlier work
Stability in mouse serum = type: in vitro ADME; conditions: for half-life: mouse
[3] = system: Mcl-1-overexpressing U937 cells; conditions: for Activity in cell viability assay: U937 cells
Bcl-xL [4] = molecular target: T1, Bcl-xL; assay: Direct FP binding assay of fluorescein-conjugated peptides
Mcl-1 [5] = molecular target: T2, Mcl-1; assay: as above; conditions: read-out: Kd toward Mcl-1, N-terminal fluorescein-conjugated peptides
Mcl-1 [6] = molecular target: T2, Mcl-1; assay: Competitive fluorescence polarization; type: binding; conditions: competitive FP assay
[7] = Far-UV CD measurement of percent helicity; type: physicochemical; conditions: for Percent helicity: 50 μM in ACN/H2O (1:1), calculated from [θ]222

T2 sequence (P97287 whole entry): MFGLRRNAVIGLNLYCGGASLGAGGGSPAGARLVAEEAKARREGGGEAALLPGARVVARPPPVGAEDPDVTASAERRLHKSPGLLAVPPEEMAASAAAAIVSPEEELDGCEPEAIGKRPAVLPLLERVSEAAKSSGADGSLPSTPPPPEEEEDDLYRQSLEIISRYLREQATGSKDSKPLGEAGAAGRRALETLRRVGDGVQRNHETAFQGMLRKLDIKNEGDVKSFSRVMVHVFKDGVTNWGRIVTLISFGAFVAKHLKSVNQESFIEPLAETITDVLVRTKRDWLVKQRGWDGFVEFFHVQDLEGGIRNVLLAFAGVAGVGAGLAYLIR
T1 sequence (Q07817 whole entry, species assumed): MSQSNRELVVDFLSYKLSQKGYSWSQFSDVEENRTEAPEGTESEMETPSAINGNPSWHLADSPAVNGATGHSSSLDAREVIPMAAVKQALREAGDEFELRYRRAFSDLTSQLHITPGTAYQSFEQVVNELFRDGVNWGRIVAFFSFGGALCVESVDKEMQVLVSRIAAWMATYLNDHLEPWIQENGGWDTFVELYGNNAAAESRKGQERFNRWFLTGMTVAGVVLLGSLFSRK

Structure (SMILES)	half-life (Stability in mouse serum)	Activity in cell viability assay ([3]; 20 μM peptide, 48 hours)	Increase in inhibitory activity compared to parent Noxa peptide (Mcl-1 [6])	Percent helicity [7]	Increase in stability in mouse serum relative to linear Noxa peptide (Stability in mouse serum)	other results
CN(C)CC[C@H](CSc1ccccc1)Nc1ccc(S(=O)(=O)NC(=O)c2ccc(N3CCN(Cc4ccccc4-c4ccc(Cl)cc4)CC3)cc2)cc1[N+](=O)[O-] [ABT-737]	–	–	–	–	–	Binding affinity to Bcl-2 (Bcl-2): subnanomolar affinity; Binding affinity to Bcl-xL (Bcl-xL [1]): subnanomolar affinity; Binding to Mcl-1 (Mcl-1 [2]): poorly
CC[C@H](C)[C@H](NC(=O)[C@H](CCCNC(=N)N)NC(=O)[C@H](CCCNC(=N)N)NC(=O)[C@H](CC(C)C)NC(=O)[C@H](CCC(N)=O)NC(=O)[C@H](C)NC(=O)[C@H](C)NC(C)=O)C(=O)NCC(=O)N[C@@H](CC(=O)O)C(=O)N[C@@H](CCCCN)C(=O)N[C@H](C(=O)N[C@@H](CC(N)=O)C(=O)N[C@@H](CC(C)C)C(=O)N[C@@H](CCCNC(=N)N)C(=O)N[C@@H](CCC(N)=O)C(=O)N[C@@H](CCCCN)C(=O)N[C@@H](CC(C)C)C(=O)N[C@@H](CC(C)C)C(=O)N[C@@H](CC(N)=O)C(N)=O)C(C)C [Noxa, reference compound]	0.175 ± 0.0383 h	no activity	–	–	–	Cell viability ([3]; ATP assay, U937 cells in RPMI1640 with 5% FBS, 20 μM peptide, 48 hours): 97.6±0.9%; Kd (Bcl-xL [4]): > 1000 nM; Kd (Mcl-1 [5]): 6.7 ± 1 nM
CC[C@H](C)[C@@H]1NC(=O)[C@H](CCCNC(=N)N)NC(=O)[C@H](CCCNC(=N)N)NC(=O)[C@H](CC(C)C)NC(=O)[C@@H](NC(=O)[C@H](C)NC(=O)[C@H](C)NC(C)=O)CSCc2ccc(cc2)-c2ccc(cc2)CSC[C@@H](C(=O)N[C@H](C(=O)N[C@@H](CC(N)=O)C(=O)N[C@@H](CC(C)C)C(=O)N[C@@H](CCCNC(=N)N)C(=O)N[C@@H](CCC(N)=O)C(=O)N[C@@H](CCCCN)C(=O)N[C@@H](CC(C)C)C(=O)N[C@@H](CC(C)C)C(=O)N[C@@H](CC(N)=O)C(N)=O)C(C)C)NC(=O)[C@H](CC(=O)O)NC(=O)CNC1=O [compound 1]	–	no activity	65 fold	–	–	–
CC[C@H](C)[C@@H]1NC(=O)[C@H](CCCNC(=N)N)NC(=O)[C@H](CCCNC(=N)N)NC(=O)[C@H](CC(C)C)NC(=O)[C@H](NC(=O)[C@H](C)NC(=O)[C@H](C)NC(C)=O)CSCc2ccc(cc2)-c2ccc(cc2)CSC[C@@H](C(=O)N[C@H](C(=O)N[C@@H](CC(N)=O)C(=O)N[C@@H](CC(C)C)C(=O)N[C@@H](CCCNC(=N)N)C(=O)N[C@@H](CCC(N)=O)C(=O)N[C@@H](CCCCN)C(=O)N[C@@H](CC(C)C)C(=O)N[C@@H](CC(C)C)C(=O)N[C@@H](CC(N)=O)C(N)=O)C(C)C)NC(=O)[C@H](CC(=O)O)NC(=O)CNC1=O [compound 2]	–	no activity	12 fold	–	–	–
CC[C@H](C)[C@@H]1NC(=O)[C@H](C)NC(=O)[C@H](CCCNC(=N)N)NC(=O)[C@H](CC(C)C)NC(=O)[C@H](NC(=O)[C@H](C)NC(=O)[C@H](C)NC(C)=O)CSCc2ccc(cc2)-c2ccc(cc2)CSC[C@@H](C(=O)N[C@H](C(=O)N[C@@H](CC(N)=O)C(=O)N[C@@H](CC(C)C)C(=O)N[C@@H](C)C(=O)N[C@@H](CCC(N)=O)C(=O)N[C@@H](C)C(=O)N[C@@H](CC(C)C)C(=O)N[C@@H](CC(C)C)C(=O)N[C@@H](CC(N)=O)C(N)=O)C(C)C)NC(=O)[C@H](CC(=O)O)NC(=O)CNC1=O [compound 5] (HELM PEPTIDE1{[ac].A.A.[dC].L.R.A.I.G.D.C.V.N.L.A.Q.A.L.L.N.[am]}|CHEM1{[c1cc(-c2ccc(C[*:2])cc2)ccc1C[*:1]]}$PEPTIDE1,CHEM1,4:R3-1:R1|PEPTIDE1,CHEM1,11:R3-1:R2$$$V2.0)	31.6 ± 2.2 h	–	–	66%	180 fold	Increase in helicity, 5 compared to 2 [7]: more than twofold
CC[C@H](C)[C@@H]1NC(=O)[C@H](C)NC(=O)[C@H](CCCNC(=N)N)NC(=O)[C@H](CC(C)C)NC(=O)[C@H](NC(=O)[C@H](C)N(C)C(=O)[C@H](C)N(C)C(=O)OC)CSCc2ccc(cc2)-c2ccc(cc2)CSC[C@@H](C(=O)N[C@H](C(=O)N[C@@H](CC(N)=O)C(=O)N[C@@H](CC(C)C)C(=O)N[C@@H](C)C(=O)N[C@@H](CCC(N)=O)C(=O)N[C@@H](C)C(=O)N[C@@H](CC(C)C)C(=O)N[C@@H](CC(C)C)C(=O)N[C@@H](CC(N)=O)C(N)=O)C(C)C)NC(=O)[C@H](CC(=O)O)NC(=O)CNC1=O [compound 8] (HELM PEPTIDE1{[COC(=O)[*:2]].[meA].[meA].[dC].L.R.A.I.G.D.C.V.N.L.A.Q.A.L.L.N.[am]}|CHEM1{[c1cc(-c2ccc(C[*:2])cc2)ccc1C[*:1]]}$PEPTIDE1,CHEM1,4:R3-1:R1|PEPTIDE1,CHEM1,11:R3-1:R2$$$V2.0)	21.2 ± 2.6 h	–	–	52%	121 fold	EC50 ([3]; 48 h): 13400 nM
